Data taken from ChEMBL document CHEMBL2440112, “Structure-activity relationships of the aromatic site in novel anticonvulsant pyrrolo[1,2-a]pyrazine derivatives” (Bioorg Med Chem Lett, 2013).
Calls of active or inactive are those of the source. The rule behind the calls is not given here.

Tests used:
Mus musculus [1] = experiment: Anticonvulsant activity in albino mouse assessed as protection against subcutaneous metrazole-induced seizures at 100 mg/kg, ip after 1 hr; assay type: functional, organism-based; set-up: dose 100 mg/kg
Mus musculus [2] = experiment: Neurotoxicity in albino mouse minimal clonic seizure model assessed as minimal motor impairment at 100 mg/kg, ip after 2 hrs by rotorod test; assay type: toxicity, organism-based; set-up: dose 100 mg/kg, route intraperitoneal; settings: in vivo
Mus musculus [3] = experiment: Anticonvulsant activity in albino mouse assessed as protection against maximal electroshock-induced seizures at 100 mg/kg, ip after 1 hr; assay type: functional, organism-based; set-up: dose 100 mg/kg
Mus musculus [4] = experiment: Anticonvulsant activity in albino mouse assessed as protection against 6 Hz psychomotor seizure at 100 mg/kg, ip after 0.5 hrs by minimal clonic seizure test; assay type: functional, organism-based; set-up: dose 100 mg/kg
Mus musculus [5] = experiment: Anticonvulsant activity in albino mouse assessed as protection against maximal electroshock-induced seizures at 100 mg/kg, ip after 4 hrs; assay type: functional, organism-based; set-up: dose 100 mg/kg
Mus musculus [6] = experiment: Anticonvulsant activity in albino mouse assessed as protection against subcutaneous metrazole-induced seizures at 100 mg/kg, ip after 0.25 hrs; assay type: functional, organism-based; set-up: dose 100 mg/kg
Mus musculus [7] = experiment: Neurotoxicity in albino mouse minimal clonic seizure model assessed as minimal motor impairment at 100 mg/kg, ip after 0.5 hrs by rotorod test; assay type: toxicity, organism-based; set-up: dose 100 mg/kg, route intraperitoneal; settings: in vivo
Mus musculus [8] = experiment: Anticonvulsant activity in albino mouse assessed as protection against subcutaneous metrazole-induced seizures at 100 mg/kg, ip after 4 hrs; assay type: functional, organism-based; set-up: dose 100 mg/kg
Mus musculus [9] = experiment: Neurotoxicity in albino mouse minimal clonic seizure model assessed as minimal motor impairment at 100 mg/kg, ip after 1 hr by rotorod test; assay type: toxicity, organism-based; set-up: dose 100 mg/kg, route intraperitoneal; settings: in vivo
Rattus norvegicus = experiment: Anticonvulsant activity in po dosed albino Sprague-Dawley rat assessed as protection against maximal electroshock-induced seizures after […] to 4 hrs; assay type: functional, organism-based
Mus musculus [10] = experiment: Anticonvulsant activity in albino mouse assessed as protection against 6 Hz psychomotor seizure at 100 mg/kg, ip after 1 hr by minimal clonic seizure test; assay type: functional, organism-based; set-up: dose 100 mg/kg
Mus musculus [11] = experiment: Anticonvulsant activity in albino mouse assessed as protection against subcutaneous metrazole-induced seizures at 100 mg/kg, ip after 0.5 hrs; assay type: functional, organism-based; set-up: dose 100 mg/kg
Mus musculus [12] = experiment: Neurotoxicity in albino mouse minimal clonic seizure model assessed as minimal motor impairment at 100 mg/kg, ip after 4 hrs by rotorod test; assay type: toxicity, organism-based; set-up: dose 100 mg/kg, route intraperitoneal; settings: in vivo
Mus musculus [13] = experiment: Anticonvulsant activity in albino mouse assessed as protection against maximal electroshock-induced seizures at 100 mg/kg, ip after 0.25 hrs; assay type: functional, organism-based; set-up: dose 100 mg/kg
Mus musculus [14] = experiment: Neurotoxicity in albino mouse minimal clonic seizure model assessed as minimal motor impairment at 100 mg/kg, ip after 0.25 hrs by rotorod test; assay type: toxicity, organism-based; set-up: dose 100 mg/kg, route intraperitoneal; settings: in vivo
Mus musculus [15] = experiment: Anticonvulsant activity in albino mouse assessed as protection against maximal electroshock-induced seizures at 100 mg/kg, ip after 0.5 hrs; assay type: functional, organism-based; set-up: dose 100 mg/kg
Mus musculus [16] = experiment: Anticonvulsant activity in albino mouse assessed as protection against 6 Hz psychomotor seizure at 100 mg/kg, ip after 2 hrs by minimal clonic seizure test; assay type: functional, organism-based; set-up: dose 100 mg/kg
Mus musculus [17] = experiment: Anticonvulsant activity in albino mouse assessed as protection against 6 Hz psychomotor seizure at 100 mg/kg, ip after 4 hrs by minimal clonic seizure test; assay type: functional, organism-based; set-up: dose 100 mg/kg
Mus musculus [18] = experiment: Neurotoxicity in albino mouse assessed as minimal motor impairment at 100 mg/kg, ip after 4 hrs by rotorod test; assay type: toxicity, organism-based; set-up: dose 100 mg/kg, route intraperitoneal; settings: in vivo
Mus musculus [19] = experiment: Neurotoxicity in albino mouse assessed as minimal motor impairment at 100 mg/kg, ip after 1 hr by rotorod test; assay type: toxicity, organism-based; set-up: dose 100 mg/kg, route intraperitoneal; settings: in vivo
Mus musculus [20] = experiment: Neurotoxicity in albino mouse assessed as minimal motor impairment at 100 mg/kg, ip after 0.25 hrs by rotorod test; assay type: toxicity, organism-based; set-up: dose 100 mg/kg, route intraperitoneal; settings: in vivo
Mus musculus [21] = experiment: Anticonvulsant activity in albino mouse assessed as protection against 6 Hz psychomotor seizure at 100 mg/kg, ip after 0.25 hrs by minimal clonic seizure test; assay type: functional, organism-based; set-up: dose 100 mg/kg
Mus musculus [22] = experiment: Neurotoxicity in albino mouse assessed as minimal motor impairment at 100 mg/kg, ip after 0.5 hrs by rotorod test; assay type: toxicity, organism-based; set-up: dose 100 mg/kg, route intraperitoneal; settings: in vivo

SMILES	Activity (Mus musculus [3])	Activity (Mus musculus [5])	Activity (Mus musculus [8])	Activity (Rattus norvegicus)	Activity (Mus musculus [11])	Activity (Mus musculus [13])	Activity (Mus musculus [15])	Activity (Mus musculus [18])	Activity (Mus musculus [19])	Activity (Mus musculus [20])	Activity (Mus musculus [22])	also measured
O=C1NC(=O)[C@@H]2CCCN2[C@H]1c1cc(Cl)cc(Cl)c1	Active	Active	inactive	inactive	inactive	Active	Active	Non-toxic	Non-toxic	Non-toxic	Non-toxic	Activity (Mus musculus [1]): inactive; Activity (Mus musculus [2]): Non-toxic; Activity (Mus musculus [4]): Active; Activity (Mus musculus [6]): inactive; Activity (Mus musculus [7]): Non-toxic; Activity (Mus musculus [9]): Non-toxic; Activity (Mus musculus [10]): inactive; Activity (Mus musculus [12]): Non-toxic; Activity (Mus musculus [14]): Non-toxic; Activity (Mus musculus [16]): inactive; Activity (Mus musculus [17]): inactive; Activity (Mus musculus [21]): Active
COc1cccc([C@H]2C(=O)NC(=O)[C@@H]3CCCN23)c1	inactive	inactive	inactive	inactive	inactive	Active	Active	Non-toxic	Non-toxic	Non-toxic	Non-toxic	Activity (Mus musculus [1]): inactive; Activity (Mus musculus [6]): inactive
O=C1NC(=O)[C@@H]2CCCN2[C@H]1c1cccs1	–	inactive	inactive	inactive	inactive	–	Active	Non-toxic	Non-toxic	Toxic	Non-toxic	–
O=C1NC(=O)[C@@H]2CCCN2[C@H]1c1ccco1	–	inactive	inactive	inactive	inactive	–	inactive	Non-toxic	–	–	Toxic	–
O=C1NC(=O)[C@@H]2CCCN2[C@H]1c1ccc2ccccc2c1	–	inactive	inactive	inactive	inactive	–	inactive	Non-toxic	–	–	Non-toxic	–
O=C1NC(=O)[C@@H]2CCCN2[C@H]1c1cccc2ccccc12	–	inactive	inactive	inactive	inactive	–	inactive	Non-toxic	–	–	Non-toxic	–
COc1ccc([C@H]2C(=O)NC(=O)[C@@H]3CCCN23)cc1	inactive	inactive	inactive	inactive	inactive	inactive	inactive	Non-toxic	Non-toxic	Non-toxic	Non-toxic	–
O=C1NC(=O)[C@@H]2CCCN2[C@H]1c1ccoc1	–	inactive	inactive	inactive	inactive	–	inactive	Non-toxic	–	–	Non-toxic	–
COc1ccccc1[C@H]1C(=O)NC(=O)[C@@H]2CCCN12	inactive	inactive	inactive	inactive	inactive	inactive	inactive	Non-toxic	Non-toxic	Non-toxic	Non-toxic	Activity (Mus musculus [2]): Non-toxic; Activity (Mus musculus [4]): Active; Activity (Mus musculus [7]): Non-toxic; Activity (Mus musculus [9]): Non-toxic; Activity (Mus musculus [10]): Active; Activity (Mus musculus [12]): Non-toxic; Activity (Mus musculus [14]): Non-toxic; Activity (Mus musculus [16]): inactive; Activity (Mus musculus [17]): inactive; Activity (Mus musculus [21]): Active
